Test results reported in the NIST ThermoML archive (doi:10.1016/j.jct.2014.04.025).
Numbers after ± are expanded uncertainties.

Conditions: 101.33 kPa, Liquid, Vibrating tube method

| SMILES | mass density (298.15 K) | also measured |
| --- | --- | --- |
| c1ccc2sccc2c1 [benzo[b]thiophene] |  | mass density (308.15 K): 1150.81 ± 1 kg/m3; mass density (318.15 K): 1141.83 ± 1 kg/m3; mass density (328.15 K): 1132.85 ± 1 kg/m3 |
| CCCC[N+]1(C)CCCC1.O=S(=O)([O-])C(F)(F)F [1-butyl-1-methylpyrrolidinium trifluoromethanesulfonate] | 1252.75 ± 1.1 kg/m3 |  |
| CCCCCCn1cc[n+](C)c1.N#C[B-](C#N)(C#N)C#N [1-hexyl-3-methylimidazolium tetracyanoborate] |  | mass density (308.15 K): 983.03 ± 1 kg/m3 |
| CC(C)=O [acetone] | 785.32 ± 1 kg/m3 |  |
| CCCC[N+]1(C)CCCC1.N#CC(=C=[N-])C#N [1-butyl-1-methylpyrrolidinium tricyanomethanide] | 1006.91 ± 1.3 kg/m3 |  |

Continued, in another order:

| mass density (298.15 K) | SMILES | also measured |
| --- | --- | --- |
| 799.52 ± 1 kg/m3 | CCCO [propan-1-ol] |  |
| 679.54 ± 1 kg/m3 | CCCCCCC [heptane] |  |
| 1058.92 ± 1 kg/m3 | c1ccsc1 [thiophene] |  |
